Reference: PubChem BioAssay (NCI)
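Tested at 5 concentrations; 48 h exposure; 96-well plates; endpoints linearly interpolated, else capped at highest concentration. Here, GI50 denotes the concentration required for 50% inhibition of growth. TGI is the concentration that stops growth completely.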

Legend:
Test in all cases: growth of human tumour cells (NCI), 48 h
SK-MEL-2 melanoma = system: SK-MEL-2 melanoma
SK-MEL-28 melanoma = system: SK-MEL-28 melanoma
SF-539 CNS = system: SF-539 CNS
U251 CNS = system: U251 CNS
SW-620 colon = system: SW-620 colon
HL-60(TB) leukemia = system: HL-60(TB) leukemia
HOP-92 NSCLC = system: HOP-92 NSCLC
EKVX NSCLC = system: EKVX NSCLC
KM12 colon = system: KM12 colon
NCI/ADR-RES ovarian = system: NCI/ADR-RES ovarian

Structure (SMILES): COC(=O)Nc1nc2ccc(NC(=O)c3cccs3)cc2[nH]1
- TGI (SK-MEL-2 melanoma): > 100 µM
- TGI (SK-MEL-28 melanoma): > 100 µM
- TGI (SF-539 CNS): 60.2 µM
- TGI (U251 CNS): > 100 µM
- TGI (SW-620 colon): > 100 µM
- TGI (HL-60(TB) leukemia): > 100 µM
- TGI (HOP-92 NSCLC): 40.7 µM
- TGI (EKVX NSCLC): > 100 µM
- TGI (KM12 colon): > 100 µM
- TGI (NCI/ADR-RES ovarian): 55.4 µM

Structure (SMILES): O=C1C(Cl)C(c2cc3cc(Br)ccc3nc2Cl)N1c1ccc(Cl)cc1 (stereo not drawn)
- TGI (SK-MEL-2 melanoma): 10.4 µM
- TGI (SK-MEL-28 melanoma): > 25 µM
- TGI (SF-539 CNS): 9.41 µM
- TGI (SW-620 colon): > 25 µM
- TGI (HL-60(TB) leukemia): 15.5 µM
- TGI (HOP-92 NSCLC): 7.2 µM
- TGI (EKVX NSCLC): 8.13 µM
- TGI (KM12 colon): > 25 µM
- TGI (NCI/ADR-RES ovarian): 16.7 µM

Structure (SMILES): CCCC(=O)O.CCCC(=O)O.CCCC(=O)O.CCCC(=O)O.[Rh].[Rh]
- GI50 (SK-MEL-2 melanoma): 285 nM
- TGI (SK-MEL-2 melanoma): 0.896 µM
- GI50 (SW-620 colon): 18.8 nM
- TGI (SW-620 colon): 0.0405 µM
- GI50 (HL-60(TB) leukemia): 44.8 nM
- TGI (HL-60(TB) leukemia): 0.351 µM
- GI50 (HOP-92 NSCLC): 211 nM
- TGI (HOP-92 NSCLC): 0.476 µM
- GI50 (EKVX NSCLC): 168 nM
- TGI (EKVX NSCLC): 0.943 µM
- GI50 (KM12 colon): 172 nM
- TGI (KM12 colon): 0.366 µM
- GI50 (NCI/ADR-RES ovarian): 185 nM
- TGI (NCI/ADR-RES ovarian): 0.589 µM

Structure (SMILES): c1ccc(C[N+]23CN4CN(CN(C4)C2)C3)cc1
- TGI (SK-MEL-2 melanoma): 34.6 µM
- TGI (SK-MEL-28 melanoma): 60.9 µM
- TGI (SF-539 CNS): 51.9 µM
- TGI (U251 CNS): 35.6 µM
- TGI (SW-620 colon): 69.5 µM
- TGI (HL-60(TB) leukemia): 57.2 µM
- TGI (HOP-92 NSCLC): 70.2 µM
- TGI (EKVX NSCLC): > 100 µM
- TGI (KM12 colon): > 100 µM
- TGI (NCI/ADR-RES ovarian): > 100 µM

Structure (SMILES): O=C(COc1ccc(Cl)c(Cl)c1)N(Cc1ccccc1)Cc1ccc[n+](Cc2ccc(Cl)cc2S(=O)(=O)F)c1
- TGI (SK-MEL-2 melanoma): 70.1 µM
- TGI (SK-MEL-28 melanoma): > 100 µM
- TGI (SF-539 CNS): > 100 µM
- TGI (U251 CNS): > 100 µM
- TGI (SW-620 colon): > 100 µM
- TGI (HL-60(TB) leukemia): 94.5 µM
- TGI (HOP-92 NSCLC): > 100 µM
- TGI (KM12 colon): 56.6 µM
- TGI (NCI/ADR-RES ovarian): > 100 µM

Structure (SMILES): CN1CC(CNC(=O)OCc2ccccc2)CC2c3cccc4c3c(cn4C)CC21 (stereo not drawn)
- GI50 (SK-MEL-2 melanoma): 1880 nM
- TGI (SK-MEL-2 melanoma): 3.45 µM
- GI50 (SK-MEL-28 melanoma): 1620 nM
- TGI (SK-MEL-28 melanoma): 3.03 µM
- GI50 (SF-539 CNS): 1640 nM
- TGI (SF-539 CNS): 3.24 µM
- GI50 (U251 CNS): 1460 nM
- TGI (U251 CNS): 2.91 µM
- GI50 (SW-620 colon): 1590 nM
- TGI (SW-620 colon): 3.12 µM
- GI50 (HL-60(TB) leukemia): 1910 nM
- TGI (HL-60(TB) leukemia): 3.85 µM
- GI50 (HOP-92 NSCLC): 1720 nM
- TGI (HOP-92 NSCLC): 5.95 µM
- GI50 (EKVX NSCLC): 5200 nM
- TGI (EKVX NSCLC): 21.3 µM
- GI50 (KM12 colon): 2140 nM
- TGI (KM12 colon): 4.65 µM
- GI50 (NCI/ADR-RES ovarian): 1820 nM
- TGI (NCI/ADR-RES ovarian): 4.49 µM

Structure (SMILES): C=CCNS(=O)(=O)c1ncnc2nc[nH]c12
- TGI (SK-MEL-2 melanoma): > 100 µM
- TGI (SK-MEL-28 melanoma): > 100 µM
- TGI (U251 CNS): > 100 µM
- TGI (SW-620 colon): > 100 µM
- TGI (HOP-92 NSCLC): > 100 µM
- TGI (EKVX NSCLC): > 100 µM
- TGI (KM12 colon): > 100 µM
- TGI (NCI/ADR-RES ovarian): > 100 µM

Structure (SMILES): COc1c(OC/C=C(\C)CCC=C(C)C)ccc2ccc(=O)oc12
- TGI (SK-MEL-2 melanoma): > 100 µM
- TGI (SK-MEL-28 melanoma): > 100 µM
- TGI (SF-539 CNS): > 100 µM
- TGI (U251 CNS): > 100 µM
- TGI (SW-620 colon): > 100 µM
- TGI (HL-60(TB) leukemia): > 100 µM
- TGI (HOP-92 NSCLC): > 100 µM
- TGI (EKVX NSCLC): > 100 µM
- TGI (KM12 colon): > 100 µM
- TGI (NCI/ADR-RES ovarian): > 100 µM

Structure (SMILES): O=C(c1cc2c(c3ccccc13)NCCN=C2C(F)(F)F)C(F)(F)F
- TGI (SK-MEL-2 melanoma): 44.1 µM
- TGI (SK-MEL-28 melanoma): 47.8 µM
- TGI (SF-539 CNS): 54.9 µM
- TGI (U251 CNS): 36.9 µM
- TGI (SW-620 colon): > 100 µM
- TGI (HL-60(TB) leukemia): 75.4 µM
- TGI (HOP-92 NSCLC): 86.6 µM
- TGI (EKVX NSCLC): > 100 µM
- TGI (KM12 colon): > 100 µM
- TGI (NCI/ADR-RES ovarian): > 100 µM

Structure (SMILES): O=C1OC2CC=CC1C2 (stereo not drawn)
- TGI (SK-MEL-2 melanoma): > 100 µM
- TGI (SK-MEL-28 melanoma): > 100 µM
- TGI (SF-539 CNS): > 100 µM
- TGI (U251 CNS): > 100 µM
- TGI (SW-620 colon): > 100 µM
- TGI (HL-60(TB) leukemia): > 100 µM
- TGI (HOP-92 NSCLC): > 100 µM
- TGI (EKVX NSCLC): > 100 µM
- TGI (KM12 colon): > 100 µM
- TGI (NCI/ADR-RES ovarian): > 100 µM

Structure (SMILES): CC(=O)NNC(=O)C1CCCCN1 (stereo not drawn)
- TGI (SK-MEL-2 melanoma): > 100 µM
- TGI (SK-MEL-28 melanoma): > 100 µM
- TGI (SF-539 CNS): > 100 µM
- TGI (U251 CNS): > 100 µM
- TGI (SW-620 colon): > 100 µM
- TGI (HL-60(TB) leukemia): > 100 µM
- TGI (HOP-92 NSCLC): > 100 µM
- TGI (EKVX NSCLC): > 100 µM
- TGI (KM12 colon): > 100 µM

Structure (SMILES): C=C1C(=O)OC2CC1CCC1(C)OC1CCC(C)=CCCC2(C)O (stereo not drawn)
- TGI (SK-MEL-2 melanoma): 14.2 µM
- TGI (SK-MEL-28 melanoma): 10.7 µM
- TGI (SF-539 CNS): 10.5 µM
- TGI (U251 CNS): 29.2 µM
- TGI (SW-620 colon): 3.82 µM
- TGI (HL-60(TB) leukemia): 2.62 µM
- TGI (HOP-92 NSCLC): 5.89 µM
- TGI (EKVX NSCLC): 13.9 µM
- TGI (KM12 colon): 12.9 µM
- TGI (NCI/ADR-RES ovarian): 5.84 µM

Structure (SMILES): CC[C@]12C=CCN3CC[C@@]4(c5cc(Br)c(OC)cc5N(C)[C@H]4[C@@](O)(C(=O)N[C@@H](Cc4ccc(O)cc4)C(=O)OC)[C@@H]1O)[C@@H]32
- TGI (SK-MEL-2 melanoma): 60.1 µM
- TGI (SK-MEL-28 melanoma): > 100 µM
- TGI (SF-539 CNS): 36.6 µM
- TGI (U251 CNS): 27.8 µM
- TGI (SW-620 colon): > 100 µM
- TGI (HL-60(TB) leukemia): 57.8 µM
- TGI (EKVX NSCLC): > 100 µM
- TGI (KM12 colon): 38.5 µM
- TGI (NCI/ADR-RES ovarian): 62.3 µM

Structure (SMILES): O=C(/C=C/c1ccccc1)N1CCCCC1
- TGI (SK-MEL-2 melanoma): > 100 µM
- TGI (SK-MEL-28 melanoma): > 100 µM
- TGI (SF-539 CNS): > 100 µM
- TGI (U251 CNS): > 100 µM
- TGI (SW-620 colon): > 100 µM
- TGI (HL-60(TB) leukemia): > 100 µM
- TGI (HOP-92 NSCLC): > 100 µM
- TGI (EKVX NSCLC): > 100 µM
- TGI (KM12 colon): > 100 µM
- TGI (NCI/ADR-RES ovarian): > 100 µM
